Tests used:
[1] = tested on: A2780 and A2780-Cp70 cells; test: WST-1 cell viability assay after cisplatin treatment; assay type: cell-based, human; conditions: A2780-cp70 compared to parental A2780; cisplatin 0-100 μM, 48 h; FIG. 23
Description: The effect of cisplatin on cell viability was determined by the WST-1 assay (Roche Applied Science) according to the manufacturer's recommendation. A2780 and A2780-Cp70 cells were seeded in 96-well plates at the density of 2500 cells/well in 100 μl appropriate medium a day before addition of cisplatin. The cells were treated with cisplatin (0-100 μM) for 48 h. Samples were made in triplicate. Ten microliters WST-1 solution was added per well and cells were incubated at 37° C. for 4 hr. The absorbance of each well was measured using a scanning multiwell spectrophotometer, ELISA reader at the wavelength of 450 nm and reference wavelength of 690 nm.

[2] = tested on: epithelial ovarian cancer; test: Gene expression analysis of ovarian cancer, recurrence free survival; assay type: in vivo, human; conditions: patients with tumors of high vs low RBM3 expression level; 210 serous samples; FIG. 19
Description: Data was collected from a previously performed microarray study, based on a patient cohort of 285 patients diagnosed with epithelial ovarian cancer between 1992 and 2006. Institutional Review Board approval for patient consent had been obtained for all patients.
The median age of patients was 59 years (ranging from 18-79 years). The inventors decided to exclude data from 18 patients who received neoadjuvant therapy, as the inventors realized that this treatment could possibly influence RBM3 mRNA levels, and might thus lead to biased results. Further, data from 40 patients who didn't receive platinum based therapy were removed from the data set. Of these 227 samples, 210 came from patients with serous cancer, 16 with endometroid and 1 with adenocarcinoma. For statistical analysis only serous samples were considered. Pathology evaluation data existed for all patients, and recurrence free survival was evaluated for RBM3 high as well as RBM3 low mRNA content.

[3] = tested on: A2780 cells; test: Effect of RBM3 knockdown on cisplatin resistance (WST-1 viability); assay type: cell-based, human; conditions: cisplatin sensitive cells with anti-RBM3 siRNA 50 nM vs non-exposed cells; cisplatin 1-100 μM; FIG. 24
Description: The human ovarian cancer cell line A2780 and the cisplatin-resistant variant A2780 Cp70 were maintained in RPMI-1640 supplemented with glutamine, 10% fetal bovine serum and 1% penicillin/streptomycin in a humidified incubator of 5% CO2 at 37° C. Cisplatin (Sigma) was dissolved in 0.9% NaCl to a stock solution of 1 mg/ml and added to cell cultures to the final concentration (1-100 μM).
Transfection with siRNA against RBM3 (Applied Biosystems, Carlsbad, Calif.) or control siRNA (Applied Biosystems) was performed with Lipofectamine 2000 (Invitrogen, Carlsbad, Calif.) with a final concentration of 50 nM siRNA.
The effect of cisplatin on cell viability was determined by the WST-1 assay as described in Examples, section 12.

**Q.** Which “viability after cisplatin treatment” value [1] does the source give for `N.N.[Cl][Pt][Cl]` [cisplatin] here?
**A.** increased viability

**Q.** And the recurrence free survival [2]?
**A.** significantly better recurrence free survival

**Q.** And the “viability after cisplatin treatment at low RBM3 protein expression” value [3]?
**A.** increased viability

Reference: patent US8747910B2, “Prediction of response to platinum-based therapy” (Atlas Antibodies AB, priority 2009, dated 2014)
